Consider one molecule from article PMC4757768, “Mechanisms of amphetamine action illuminated through optical monitoring of dopamine synaptic vesicles in Drosophila brain” (Nature Communications, 2016).

This assay addresses T1, VMAT2 (Rattus norvegicus, UniProt Q01827).
T1 construct: gene Slc18a2
Description: inhibition of [3H]dopamine uptake in digitonin-treated HEK293 cells stably expressing rat VMAT2; binding Ki […] at mammalian VMAT2 also reported. It is filed as cell-based.

pIC50: −log10 of the molar value.

T1 sequence (Q01827 whole entry): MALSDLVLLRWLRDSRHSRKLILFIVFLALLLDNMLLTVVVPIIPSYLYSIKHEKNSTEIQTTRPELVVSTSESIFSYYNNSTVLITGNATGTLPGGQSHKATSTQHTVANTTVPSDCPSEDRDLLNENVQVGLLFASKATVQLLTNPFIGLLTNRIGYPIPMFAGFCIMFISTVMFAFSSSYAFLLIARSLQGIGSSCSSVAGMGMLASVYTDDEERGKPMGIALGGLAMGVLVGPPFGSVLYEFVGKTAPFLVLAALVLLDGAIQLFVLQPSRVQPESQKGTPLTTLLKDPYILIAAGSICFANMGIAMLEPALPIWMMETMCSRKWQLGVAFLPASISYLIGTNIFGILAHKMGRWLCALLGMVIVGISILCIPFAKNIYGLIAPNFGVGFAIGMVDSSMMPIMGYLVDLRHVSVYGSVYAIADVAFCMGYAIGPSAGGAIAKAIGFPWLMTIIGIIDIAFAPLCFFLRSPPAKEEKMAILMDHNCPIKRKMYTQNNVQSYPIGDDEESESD

One may read the pIC50 as the negative decadic logarithm of the IC50, by convention in mol/L. Lower therefore signals a high IC50. The molecule `COc1cc2c(cc1O)[C@H]1CC(=O)[C@H](CC(C)C)CN1CC2` [(+)-CYY477] gave a pIC50 of 7.59.
